# Test results: paper PMC7280082 (Acta Pharmaceutica Sinica. B, 2019)
# Key:
# [1] = system: HIV-1 RES056 (K103N + Y181C) double-mutant strain; test: microbe, parasite or virus in culture; type: cell-based; conditions: for SI RES056: CC50/EC50; for EC50: Human immunodeficiency virus 1, MT4, read-out: EC50 RES056; for RF RES056: ratio of EC50 (resistant viral strain)/EC50 (wild-type viral strain)
# WT HIV-1 RT = WT HIV-1 RT (Human immunodeficiency virus type 1 group M subtype B, UniProt P03366); test: Recombinant HIV-1 RT inhibitory assay; type: biochemical
# HIV-2 strain (ROD) = test: Anti-HIV-2; type: cell-based; conditions: for EC50: Human immunodeficiency virus 2, MT4, read-out: EC50 ROD; for SI ROD: ratio of CC50/EC50
# [2] = system: HIV-1 E138K mutant strain; test: microbe, parasite or virus in culture; type: cell-based; conditions: for SI E138K: CC50/EC50; for EC50: Human immunodeficiency virus 1, MT4, read-out: EC50 E138K; for RF E138K: ratio of EC50 (resistant viral strain)/EC50 (wild-type viral strain)
# [3] = system: HIV-1 Y188L mutant strain; test: microbe, parasite or virus in culture; type: cell-based; conditions: for SI Y188L: CC50/EC50; for EC50: Human immunodeficiency virus 1, MT4, read-out: EC50 Y188L; for RF Y188L: ratio of EC50 (resistant viral strain)/EC50 (wild-type viral strain)
# WT HIV-1 (IIIB) = test: microbe, parasite or virus in culture; type: cell-based; conditions: for EC50: Human immunodeficiency virus 1, IIIB, MT4, read-out: EC50 IIIB; for SI IIIB: ratio of CC50/EC50
# [4] = system: HIV-1 Y181C mutant strain; test: microbe, parasite or virus in culture; type: cell-based; conditions: for SI Y181C: CC50/EC50; for EC50: Human immunodeficiency virus 1, MT4, read-out: EC50 Y181C; for RF Y181C: ratio of EC50 (resistant viral strain)/EC50 (wild-type viral strain)
# [5] = system: HIV-1 F227L + V106A double-mutant strain; test: microbe, parasite or virus in culture; type: cell-based; conditions: for SI F227L + V106A: CC50/EC50; for EC50: Human immunodeficiency virus 1, MT4, read-out: EC50 F227L + V106A; for RF F227L + V106A: ratio of EC50 (resistant viral strain)/EC50 (wild-type viral strain)
# [6] = system: HIV-1 K103N mutant strain; test: microbe, parasite or virus in culture; type: cell-based; conditions: for SI K103N: CC50/EC50; for EC50: Human immunodeficiency virus 1, MT4, read-out: EC50 K103N; for RF K103N: ratio of EC50 (resistant viral strain)/EC50 (wild-type viral strain)
# [7] = system: HIV-1 L100I mutant strain; test: microbe, parasite or virus in culture; type: cell-based; conditions: for SI L100I: CC50/EC50; for EC50: Human immunodeficiency virus 1, MT4, read-out: EC50 L100I; for RF L100I: ratio of EC50 (resistant viral strain)/EC50 (wild-type viral strain)
# [8] = Cytotoxicity in mock-infected MT-4 cell cultures, MTT method; conditions: human, mock-infected MT-4 cells
Structure (SMILES),SI RES056 [1],EC50 [1] [nM],RF RES056 [1],IC50 (WT HIV-1 RT) [nM],EC50 (HIV-2 strain (ROD)) [nM],SI ROD (HIV-2 strain (ROD)),SI E138K [2],EC50 [2] [nM],RF E138K [2],SI Y188L [3],EC50 [3] [nM],RF Y188L [3],EC50 (WT HIV-1 (IIIB)) [nM],SI IIIB (WT HIV-1 (IIIB)),SI Y181C [4],EC50 [4] [nM],RF Y181C [4],SI F227L + V106A [5],EC50 [5] [nM],RF F227L + V106A [5],further results
"COc1ccc(-c2cc(C)c(Oc3nc(NC4CCN(Cc5ccc(C(N)=O)cc5)CC4)nc4ccsc34)c(C)c2)cc1 [Compound 22, 4-((4-((4-((4′-Methoxy-3,5-dimethyl-[1,1′-biphenyl]-4-yl)oxy)thieno[3,2-d]pyrimidin-2-yl)amino)piperidin-1-yl)methyl)benzamide]",12,1120 ± 353,21.4,233 ± 28,5040 ± 685,3,90,149 ± 42,2.8,122,110 ± 3.57,2.1,52.6 ± 11.4,256,85,158 ± 27.3,3.0,45,297 ± 39.8,5.7,SI K103N [6]: 230; EC50 [6]: 58.4 ± 7.14 nM; RF K103N [6]: 1.1; SI L100I [7]: 50; EC50 [7]: 268 ± 103 nM; RF L100I [7]: 5.1; CC50 at 5 days [8]: 13400 ± 5940 nM
"Cc1cc(-c2ccoc2)cc(C)c1Oc1nc(NC2CCN(Cc3ccc(C(N)=O)cc3)CC2)nc2ccsc12 [Compound 14, 4-((4-((4-(4-(Furan-3-yl)-2,6-dimethylphenoxy)thieno[3,2-d]pyrimidin-2-yl)amino)piperidin-1-yl)methyl)benzamide]",19,813 ± 177,14.1,249 ± 1,3180 ± 832,5,89,177 ± 2.93,3.1,71,222 ± 30.5,3.9,57.5 ± 12.7,275,88,180 ± 33.4,3.1,30,525 ± 21.1,9.1,SI K103N [6]: 212; EC50 [6]: 74.8 ± 2.93 nM; RF K103N [6]: 1.3; SI L100I [7]: 60; EC50 [7]: 262 ± 75 nM; RF L100I [7]: 4.6; CC50 at 5 days [8]: 15800 ± 7040 nM
"COc1ccc(-c2cc(C)c(Oc3nc(NC4CCN(Cc5ccc(S(N)(=O)=O)cc5)CC4)nc4ccsc34)c(C)c2)cc1 [Compound 21, 4-((4-((4-((4′-Methoxy-3,5-dimethyl-[1,1′-biphenyl]-4-yl)oxy)thieno[3,2-d]pyrimidin-2-yl)amino)piperidin-1-yl)methyl)benzenesulfonamide]",11,1560 ± 1280,25.6,268 ± 52,> 16600,<1,145,114 ± 9.2,1.9,114,146 ± 44.7,2.4,61.1 ± 10.3,272,105,157 ± 5.61,2.6,136,122 ± 59.9,2.0,SI K103N [6]: 289; EC50 [6]: 57.6 ± 0.67 nM; RF K103N [6]: 0.9; SI L100I [7]: 98; EC50 [7]: 169 ± 2.91 nM; RF L100I [7]: 2.8; CC50 at 5 days [8]: 16600 ± 4650 nM
"Cc1cc(-c2cccc(N(C)C)c2)cc(C)c1Oc1nc(NC2CCN(Cc3ccc(S(N)(=O)=O)cc3)CC2)nc2ccsc12 [Compound 31, 4-((4-((4-((3'-(Dimethylamino)-3,5-dimethyl-[1,1′-biphenyl]-4-yl)oxy)thieno[3,2-d]pyrimidin-2-yl)amino)piperidin-1-yl)methyl)benzenesulfonamide]",4,29600,33.5,1680 ± 56,> 110000,<1,112,979 ± 185,1.1,55,1990 ± 46.5,2.3,882 ± 323,125,48,2300 ± 413,2.6,51,2160 ± 298,2.4,SI K103N [6]: 161; EC50 [6]: 685 ± 0.21 nM; RF K103N [6]: 0.8; SI L100I [7]: 46; EC50 [7]: 2400 ± 256 nM; RF L100I [7]: 2.7; CC50 at 5 days [8]: 110000 ± 1460 nM
"Cc1cc(-c2ccsc2)cc(C)c1Oc1nc(NC2CCN(Cc3ccc(S(N)(=O)=O)cc3)CC2)nc2ccsc12 [Compound 17, 4-((4-((4-(2,6-Dimethyl-4-(thiophen-3-yl)phenoxy)thieno[3,2-d]pyrimidin-2-yl)amino)piperidin-1-yl)methyl)benzenesulfonamide]",17,932 ± 88.4,29.5,167 ± 14,4800 ± 916,3,295,52.5 ± 11.3,1.7,249,62 ± 5.83,2.0,31.6 ± 17.7,489,245,63.2 ± 16.1,2.0,272,56.8 ± 3.85,1.8,SI K103N [6]: 865; EC50 [6]: 17.9 ± 1.51 nM; RF K103N [6]: 0.6; SI L100I [7]: 203; EC50 [7]: 76 ± 17.2 nM; RF L100I [7]: 2.4; CC50 at 5 days [8]: 15400 ± 5860 nM
"Cc1cc(-c2ccccc2)cc(C)c1Oc1nc(NC2CCN(Cc3ccc(C(N)=O)cc3)CC2)nc2ccsc12 [Compound 20, 4-((4-((4-((3,5-Dimethyl-[1,1′-biphenyl]-4-yl)oxy)thieno[3,2-d]pyrimidin-2-yl)amino)piperidin-1-yl)methyl)benzamide]",10,1733 ± 5.51,36.3,161 ± 14,3840 ± 1760,5,120,146 ± 12.5,3.1,85,205 ± 13.6,4.3,47.7 ± 11.8,367,89,196 ± 54.6,4.1,44,395 ± 5.14,8.3,SI K103N [6]: 171; EC50 [6]: 102 ± 2.5 nM; RF K103N [6]: 2.1; SI L100I [7]: 42; EC50 [7]: 416 ± 87.9 nM; RF L100I [7]: 8.7; CC50 at 5 days [8]: 17500 ± 6180 nM
